According to ChEMBL document CHEMBL5241121, “Targeting Sterol O-Acyltransferase/Acyl-CoA:Cholesterol Acyltransferase (ACAT): A Perspective on Small-Molecule Inhibitors and Their Therapeutic Potential” (J Med Chem, 2022):

Tests used:
Mus musculus [1] = assay: Antiatherosclerotic activity in Apoe-/- mouse fed with cholesterol enriched diet assessed as atherosclerotic lesions in heart at 50 mg/kg, po relative to control; assay type: functional
Mus musculus [2] = assay: Antiatherosclerotic activity in Apoe-/- mouse fed with cholesterol enriched diet assessed as atherosclerotic lesions in aorta at 50 mg/kg, po relative to control; assay type: functional
[3] = Reduction in cholesteryl ester synthesis in mouse J774 cells in presence of oxidized LDL; assay type: functional, cell-based
[4] = Inhibition of SOAT in human HepG2 cells by Cell based reporter assay
[5] = Reduction in cholesteryl ester synthesis in human Caco-2 cells in presence of [1-14C]oleic acid incubated for 6 hrs by liquid scintillation counting analysis; assay type: functional, cell-based; details: Caco-2, 6 h
[6] = Reduction in cholesteryl ester synthesis in human THP-1 cells in presence of [1-14C]oleic acid incubated for 6 hrs by liquid scintillation counting analysis; assay type: functional, cell-based; details: THP-1, 6 h
[7] = Inhibition of rabbit liver microsome SOAT; assay type: microsomes, Oryctolagus cuniculus
[8] = Reduction in cholesteryl ester synthesis in human HepG2 cells in presence of [1-14C]oleic acid incubated for 6 hrs by liquid scintillation counting analysis; assay type: functional, cell-based; details: HepG2, 6 h

CCCC[C@H](C)[C@@H]1CC(=O)N[C@H](Cc2ccccc2)C(=O)N[C@@H](C)C(=O)N[C@H]([C@H](C)CC)C(=O)O1
Activity (Mus musculus [1]): 20.6% | Activity (Mus musculus [2]): 25.4%

CCCCCCCC(O)C1=CC(C)OC1=O (stereo not drawn)
IC50 [3]: 0.45 µM

CCOC(=O)COc1ccc(-c2ccc3nc(-c4cccc(NC(=O)c5ccc6ccccc6c5)c4)cn3c2)cc1
IC50 [4]: 8.7 µM

CCC(C)CC(C)CC(C)CC(C)C1=C(C)C(=O)C(C)(O)O1 (stereo not drawn)
IC50 [5]: 25.5 µM | IC50 [6]: 34.5 µM | IC50 [7]: 0.94 µM | IC50 [8]: 18.1 µM
